Test results published in ChEMBL document CHEMBL5325409, “Exploiting HOPNO-dicopper center interaction to development of inhibitors for human tyrosinase” (Eur J Med Chem, 2023).

What was measured:
Tyrosinase [1] = molecular target: T1, Tyrosinase (Homo sapiens, UniProt P14679); type: cell-based, MNT-1
T1 sequence (P14679 whole entry): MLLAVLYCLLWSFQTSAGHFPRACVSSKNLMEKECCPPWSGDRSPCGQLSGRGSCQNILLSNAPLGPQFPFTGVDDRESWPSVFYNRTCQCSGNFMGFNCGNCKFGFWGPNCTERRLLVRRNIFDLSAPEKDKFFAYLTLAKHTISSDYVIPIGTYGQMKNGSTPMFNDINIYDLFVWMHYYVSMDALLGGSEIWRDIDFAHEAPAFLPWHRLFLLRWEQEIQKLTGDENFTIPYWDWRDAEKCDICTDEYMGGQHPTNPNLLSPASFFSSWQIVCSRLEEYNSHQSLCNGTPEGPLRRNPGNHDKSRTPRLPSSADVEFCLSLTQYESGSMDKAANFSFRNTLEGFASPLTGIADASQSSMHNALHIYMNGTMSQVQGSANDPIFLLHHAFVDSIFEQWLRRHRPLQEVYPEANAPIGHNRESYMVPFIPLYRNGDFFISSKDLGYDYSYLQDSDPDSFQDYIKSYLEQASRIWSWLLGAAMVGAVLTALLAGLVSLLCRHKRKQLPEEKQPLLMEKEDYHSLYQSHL
Description: Inhibition of tyrosinase in human MNT-1 cells assessed as inhibition of melanin production measured after 96 hrs

Mushroom tyrosinase = Mushroom tyrosinase (Agaricus bisporus, UniProt O42713+Q00024+C7FF04+C7FF05)
Description: Competitive inhibition of Agaricus bisporus tyrosinase using L-DOPA as substrate by Michelis-Menten based analysis

Tyrosinase [2] = molecular target: T1, Tyrosinase
Description: Competitive inhibition of human recombinant tyrosinase expressed in Sf9 cells using L-DOPA as substrate by Michelis-Menten based analysis

Tyrosinase [3] = molecular target: T2, Tyrosinase (Mus musculus, UniProt P11344)
T2 sequence (P11344 whole entry): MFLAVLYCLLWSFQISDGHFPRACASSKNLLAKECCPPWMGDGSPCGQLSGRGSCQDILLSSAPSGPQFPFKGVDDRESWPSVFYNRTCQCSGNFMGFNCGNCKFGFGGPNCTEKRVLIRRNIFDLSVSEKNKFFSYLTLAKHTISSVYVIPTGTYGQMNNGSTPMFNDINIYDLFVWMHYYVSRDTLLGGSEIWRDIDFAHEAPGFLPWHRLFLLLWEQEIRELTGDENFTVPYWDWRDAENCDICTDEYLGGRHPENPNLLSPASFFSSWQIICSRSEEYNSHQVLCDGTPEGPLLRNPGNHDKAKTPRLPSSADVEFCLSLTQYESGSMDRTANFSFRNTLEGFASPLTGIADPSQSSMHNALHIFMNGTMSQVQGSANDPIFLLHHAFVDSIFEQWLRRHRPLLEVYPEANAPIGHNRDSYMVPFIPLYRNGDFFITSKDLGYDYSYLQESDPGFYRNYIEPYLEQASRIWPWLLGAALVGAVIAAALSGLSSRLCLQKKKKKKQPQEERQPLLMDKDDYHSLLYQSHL
Description: Inhibition of tyrosinase in mouse B16-F10 cells assessed as inhibition of melanin production measured after 72 hrs

Tyrosinase [4] = molecular target: T3, Tyrosinase (Streptomyces antibioticus, UniProt P07524)
T3 sequence (P07524 whole entry): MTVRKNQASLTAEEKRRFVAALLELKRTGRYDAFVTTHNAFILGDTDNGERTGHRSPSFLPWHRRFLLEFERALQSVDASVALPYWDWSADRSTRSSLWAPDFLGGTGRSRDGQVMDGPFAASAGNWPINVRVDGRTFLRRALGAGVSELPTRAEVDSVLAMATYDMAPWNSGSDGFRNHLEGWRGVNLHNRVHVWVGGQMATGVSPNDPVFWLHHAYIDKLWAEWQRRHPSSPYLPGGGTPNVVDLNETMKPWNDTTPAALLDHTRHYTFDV
Description: Competitive inhibition of Streptomyces antibioticus tyrosinase using L-DOPA as substrate by Michelis-Menten based analysis

Tyrosinase [5] = molecular target: T1, Tyrosinase; type: subcellular, MNT-1, Lysates

| SMILES | IC50 (Tyrosinase [1]) [µM] | Ki (Mushroom tyrosinase) [µM] | Ki (Tyrosinase [2]) [µM] | IC50 (Tyrosinase [3]) [µM] | Ki (Tyrosinase [4]) [µM] | IC50 (Tyrosinase [5]) [µM] |
| --- | --- | --- | --- | --- | --- | --- |
| Cl.NC(Cc1ccc(=O)n(O)c1)C(=O)O (racemic) | > 400 | 1.2 | 6 | 10 | 42 | 90 |
| O=c1ccc(CO)cn1O | – | 1.2 | 7.5 | 61.2 | 4.1 | – |
| Cl.N[C@@H](Cc1ccc(=O)n(O)c1)C(=O)O | > 400 | 12.5 | 8 | – | 39 | 73.6 |
| Cl.N[C@H](Cc1ccc(=O)n(O)c1)C(=O)O | > 400 | 12.8 | 76 | – | 16 | 277 |
